Data published in the NIST ThermoML archive (doi:10.1016/j.jct.2013.10.023).
± gives the expanded uncertainty stated by the source.

Experiments:
[1] = 101 kPa, Liquid; for viscosity: Capillary tube (Ostwald / Ubbelohde) method; for mass density: Vibrating tube method
[2] = xn = mol fraction of the nth substance listed; conditions: 101 kPa, Liquid, x2 = 0; for viscosity: Capillary tube (Ostwald / Ubbelohde) method; for mass density: Vibrating tube method

| Compound | viscosity ([1]; 298.15 K) | mass density ([1]; 298.15 K) | viscosity ([1]; 308.15 K) | mass density ([1]; 308.15 K) | viscosity ([1]; 318.15 K) | mass density ([1]; 318.15 K) | viscosity ([1]; 328.15 K) | mass density ([1]; 328.15 K) | viscosity ([1]; 338.15 K) | mass density ([1]; 338.15 K) | viscosity ([1]; 348.15 K) | mass density ([1]; 348.15 K) | viscosity ([1]; 358.15 K) | mass density ([1]; 358.15 K) | further results |
| --- | --- | --- | --- | --- | --- | --- | --- | --- | --- | --- | --- | --- | --- | --- | --- |
| CC(=O)[O-].CCn1cc[n+](C)c1 [1-ethyl-3-methylimidazolium acetate] | 138.4 ± 3.6 mPa·s | 1099.04 ± 10 kg/m3 | 76.1 ± 1.6 mPa·s | 1092.95 ± 10 kg/m3 | 45.9 ± 0.96 mPa·s | 1086.88 ± 10 kg/m3 | 30.1 ± 0.63 mPa·s | 1080.86 ± 10 kg/m3 | 20.8 ± 0.44 mPa·s | 1074.86 ± 10 kg/m3 | 14.28 ± 0.3 mPa·s | 1071.37 ± 10 kg/m3 | 11.53 ± 0.24 mPa·s | 1063.03 ± 10 kg/m3 |  |
| CCOS(=O)(=O)[O-].CCn1cc[n+](C)c1 [1-ethyl-3-methylimidazolium ethyl sulfate] | 96.62 ± 2.2 mPa·s | 1238.68 ± 10 kg/m3 | 60.41 ± 1.3 mPa·s | 1231.92 ± 10 kg/m3 | 39.95 ± 0.84 mPa·s | 1225.2 ± 10 kg/m3 | 28.91 ± 0.61 mPa·s | 1218.51 ± 10 kg/m3 | 20.63 ± 0.43 mPa·s | 1211.88 ± 10 kg/m3 | 15.66 ± 0.33 mPa·s | 1208.19 ± 10 kg/m3 | 12.23 ± 0.26 mPa·s | 1198.75 ± 10 kg/m3 |  |
| CCOS(=O)(=O)[O-].CCn1cc[n+](C)c1 [1-ethyl-3-methylimidazolium ethyl sulfate] + CC(=O)[O-].CCn1cc[n+](C)c1 |  |  |  |  |  |  |  |  |  |  |  |  |  |  | viscosity ([2]; 298.15 K): 96.62 ± 2.2 mPa·s; mass density ([2]; 298.15 K): 1238.68 ± 10 kg/m3; viscosity ([2]; 308.15 K): 60.41 ± 1.3 mPa·s; mass density ([2]; 308.15 K): 1231.92 ± 10 kg/m3; viscosity ([2]; 318.15 K): 39.95 ± 0.84 mPa·s; mass density ([2]; 318.15 K): 1225.2 ± 10 kg/m3; viscosity ([2]; 328.15 K): 28.91 ± 0.61 mPa·s; mass density ([2]; 328.15 K): 1218.51 ± 10 kg/m3; viscosity ([2]; 338.15 K): 20.63 ± 0.43 mPa·s; mass density ([2]; 338.15 K): 1211.88 ± 10 kg/m3; viscosity ([2]; 348.15 K): 15.66 ± 0.33 mPa·s; mass density ([2]; 348.15 K): 1208.19 ± 10 kg/m3; viscosity ([2]; 358.15 K): 12.23 ± 0.26 mPa·s; mass density ([2]; 358.15 K): 1198.75 ± 10 kg/m3 |
